In ChEMBL document CHEMBL4422664, “2-Benzoylbenzofuran derivatives possessing piperazine linker as anticancer agents” (Bioorg Med Chem Lett, 2019):

system: A549; experiment: Induction of apoptosis in human A549 assessed as early apoptotic cells after 24 to 48 hrs by Annexin V/propidium iodide staining-based flow cytometric analysis; format: functional, cell-based; settings: not given

| Compound | Activity |
| --- | --- |
| CCN(CC)c1ccc2cc(C(=O)c3ccc(N4CCN(C(=O)CN5CCN(Cc6ccc(/C=C/C(=O)OC)cc6)CC5)CC4)cc3)oc2c1 | Dose-dependent effect |

system: HeLa; experiment: Cytotoxicity against human HeLa assessed as reduction in cell viability after 48 hrs by MTT assay; format: functional, cell-based; settings: not given

| Compound | IC50 |
| --- | --- |
| CCN(CC)c1ccc2cc(C(=O)c3ccc(N4CCN(C(=O)CN5CCNCC5)CC4)cc3)oc2c1 | 1.35 µM |
| CCN(CC)c1ccc2cc(C(=O)c3ccc(N4CCN(C(=O)CN5CCN(S(=O)(=O)c6ccc(F)cc6)CC5)CC4)cc3)oc2c1 | 16.7 µM |
| CCN(CC)c1ccc2cc(C(=O)c3ccc(N4CCN(C(=O)CN5CCN(CC(C)=O)CC5)CC4)cc3)oc2c1 | 2.76 µM |
| CCN(CC)c1ccc2cc(C(=O)c3ccc(N4CCN(C(=O)CN5CCN(CC(=O)c6ccc(OC)cc6)CC5)CC4)cc3)oc2c1 | 15.3 µM |
| CCN(CC)c1ccc2cc(C(=O)c3ccc(N4CCN(C(=O)CN5CCN(C(=O)/C=C/c6ccccc6)CC5)CC4)cc3)oc2c1 | 5.26 µM |
| CCN(CC)c1ccc2cc(C(=O)c3ccc(N4CCN(C(=O)CN5CCN(Cc6ccc(/C=C/C(=O)OC)cc6)CC5)CC4)cc3)oc2c1 | 3.04 µM |

system: A549; experiment: Induction of apoptosis in human A549 assessed as necrotic cells at 1 uM after 24 to 48 hrs by Annexin V/propidium iodide staining-based flow cytometric analysis (reference value: 0.16%); format: functional; settings: not given

| Compound | Activity |
| --- | --- |
| CCN(CC)c1ccc2cc(C(=O)c3ccc(N4CCN(C(=O)CN5CCN(Cc6ccc(/C=C/C(=O)OC)cc6)CC5)CC4)cc3)oc2c1 | 0.82% |

system: A549; experiment: Cytotoxicity against human A549 assessed as reduction in cell viability after 48 hrs by MTT assay; format: functional, cell-based; settings: A549, 48 h

| Compound | IC50 |
| --- | --- |
| CCN(CC)c1ccc2cc(C(=O)c3ccc(N4CCN(C(=O)CN5CCNCC5)CC4)cc3)oc2c1 | 0.32 µM |
| CCN(CC)c1ccc2cc(C(=O)c3ccc(N4CCN(C(=O)CN5CCN(S(=O)(=O)c6ccc(F)cc6)CC5)CC4)cc3)oc2c1 | 33.2 µM |
| CCN(CC)c1ccc2cc(C(=O)c3ccc(N4CCN(C(=O)CN5CCN(CC(C)=O)CC5)CC4)cc3)oc2c1 | 8.92 µM |
| CCN(CC)c1ccc2cc(C(=O)c3ccc(N4CCN(C(=O)CN5CCN(CC(=O)c6ccc(OC)cc6)CC5)CC4)cc3)oc2c1 | 4.84 µM |
| CCN(CC)c1ccc2cc(C(=O)c3ccc(N4CCN(C(=O)CN5CCN(C(=O)/C=C/c6ccccc6)CC5)CC4)cc3)oc2c1 | 9.45 µM |
| CCN(CC)c1ccc2cc(C(=O)c3ccc(N4CCN(C(=O)CN5CCN(Cc6ccc(/C=C/C(=O)OC)cc6)CC5)CC4)cc3)oc2c1 | 2.81 µM |

system: A549; experiment: Induction of apoptosis in human A549 assessed as viable cells at 2 uM after 24 to 48 hrs by Annexin V/propidium iodide staining-based flow cytometric analysis (reference value: 98.5%); format: functional; settings: read-out: Activity

| Compound | viability at 2 µM |
| --- | --- |
| CCN(CC)c1ccc2cc(C(=O)c3ccc(N4CCN(C(=O)CN5CCN(Cc6ccc(/C=C/C(=O)OC)cc6)CC5)CC4)cc3)oc2c1 | 9.27% |

system: A549; experiment: Induction of apoptosis in human A549 assessed as late apoptotic cells at 1 uM after 24 to 48 hrs by Annexin V/propidium iodide staining-based flow cytometric analysis (reference value: 0.54%); format: functional; settings: not given

| Compound | Activity |
| --- | --- |
| CCN(CC)c1ccc2cc(C(=O)c3ccc(N4CCN(C(=O)CN5CCN(Cc6ccc(/C=C/C(=O)OC)cc6)CC5)CC4)cc3)oc2c1 | 7.98% |

system: A549; experiment: Induction of apoptosis in human A549 assessed as early apoptotic cells at 2 uM after 24 to 48 hrs by Annexin V/propidium iodide staining-based flow cytometric analysis (reference value: 0.79%); format: functional; settings: not given

| Compound | Activity |
| --- | --- |
| CCN(CC)c1ccc2cc(C(=O)c3ccc(N4CCN(C(=O)CN5CCN(Cc6ccc(/C=C/C(=O)OC)cc6)CC5)CC4)cc3)oc2c1 | 43.1% |

system: A549; experiment: Induction of apoptosis in human A549 assessed as viable cells at 1 uM after 24 to 48 hrs by Annexin V/propidium iodide staining-based flow cytometric analysis (reference value: 98.5%); format: functional; settings: read-out: Activity

| Compound | viability at 1 µM |
| --- | --- |
| CCN(CC)c1ccc2cc(C(=O)c3ccc(N4CCN(C(=O)CN5CCN(Cc6ccc(/C=C/C(=O)OC)cc6)CC5)CC4)cc3)oc2c1 | 83.3% |

system: MCF7; experiment: Cytotoxicity against human MCF7 assessed as reduction in cell viability after 48 hrs by MTT assay; format: functional, cell-based; settings: MCF7, 48 h

| Compound | IC50 |
| --- | --- |
| CCN(CC)c1ccc2cc(C(=O)c3ccc(N4CCN(C(=O)CN5CCNCC5)CC4)cc3)oc2c1 | 5.34 µM |
| CCN(CC)c1ccc2cc(C(=O)c3ccc(N4CCN(C(=O)CN5CCN(S(=O)(=O)c6ccc(F)cc6)CC5)CC4)cc3)oc2c1 | 20.5 µM |
| CCN(CC)c1ccc2cc(C(=O)c3ccc(N4CCN(C(=O)CN5CCN(CC(C)=O)CC5)CC4)cc3)oc2c1 | 11 µM |
| CCN(CC)c1ccc2cc(C(=O)c3ccc(N4CCN(C(=O)CN5CCN(CC(=O)c6ccc(OC)cc6)CC5)CC4)cc3)oc2c1 | 16.7 µM |
| CCN(CC)c1ccc2cc(C(=O)c3ccc(N4CCN(C(=O)CN5CCN(C(=O)/C=C/c6ccccc6)CC5)CC4)cc3)oc2c1 | 13.4 µM |
| CCN(CC)c1ccc2cc(C(=O)c3ccc(N4CCN(C(=O)CN5CCN(Cc6ccc(/C=C/C(=O)OC)cc6)CC5)CC4)cc3)oc2c1 | 8.73 µM |

system: A549; experiment: Induction of apoptosis in human A549 assessed as early apoptotic cells at 1 uM after 24 to 48 hrs by Annexin V/propidium iodide staining-based flow cytometric analysis (reference value: 0.79%); format: functional; settings: not given

| Compound | Activity |
| --- | --- |
| CCN(CC)c1ccc2cc(C(=O)c3ccc(N4CCN(C(=O)CN5CCN(Cc6ccc(/C=C/C(=O)OC)cc6)CC5)CC4)cc3)oc2c1 | 7.95% |

system: A549; experiment: Induction of apoptosis in human A549 assessed as late apoptotic cells at 2 uM after 24 to 48 hrs by Annexin V/propidium iodide staining-based flow cytometric analysis (reference value: 0.54%); format: functional; settings: not given

| Compound | Activity |
| --- | --- |
| CCN(CC)c1ccc2cc(C(=O)c3ccc(N4CCN(C(=O)CN5CCN(Cc6ccc(/C=C/C(=O)OC)cc6)CC5)CC4)cc3)oc2c1 | 43.8% |

system: SGC-7901; experiment: Cytotoxicity against human SGC7901 assessed as reduction in cell viability after 48 hrs by MTT assay; format: functional, cell-based; settings: SGC-7901, 48 h

| Compound | IC50 |
| --- | --- |
| CCN(CC)c1ccc2cc(C(=O)c3ccc(N4CCN(C(=O)CN5CCNCC5)CC4)cc3)oc2c1 | 1.22 µM |
| CCN(CC)c1ccc2cc(C(=O)c3ccc(N4CCN(C(=O)CN5CCN(S(=O)(=O)c6ccc(F)cc6)CC5)CC4)cc3)oc2c1 | > 40 µM |
| CCN(CC)c1ccc2cc(C(=O)c3ccc(N4CCN(C(=O)CN5CCN(CC(C)=O)CC5)CC4)cc3)oc2c1 | 2.21 µM |
| CCN(CC)c1ccc2cc(C(=O)c3ccc(N4CCN(C(=O)CN5CCN(CC(=O)c6ccc(OC)cc6)CC5)CC4)cc3)oc2c1 | 8.91 µM |
| CCN(CC)c1ccc2cc(C(=O)c3ccc(N4CCN(C(=O)CN5CCN(C(=O)/C=C/c6ccccc6)CC5)CC4)cc3)oc2c1 | 1.14 µM |
| CCN(CC)c1ccc2cc(C(=O)c3ccc(N4CCN(C(=O)CN5CCN(Cc6ccc(/C=C/C(=O)OC)cc6)CC5)CC4)cc3)oc2c1 | 0.74 µM |

system: HCT-116; experiment: Cytotoxicity against human HCT116 assessed as reduction in cell viability after 48 hrs by MTT assay; format: functional, cell-based; settings: HCT-116, 48 h

| Compound | IC50 |
| --- | --- |
| CCN(CC)c1ccc2cc(C(=O)c3ccc(N4CCN(C(=O)CN5CCNCC5)CC4)cc3)oc2c1 | 1.87 µM |
| CCN(CC)c1ccc2cc(C(=O)c3ccc(N4CCN(C(=O)CN5CCN(S(=O)(=O)c6ccc(F)cc6)CC5)CC4)cc3)oc2c1 | > 40 µM |
| CCN(CC)c1ccc2cc(C(=O)c3ccc(N4CCN(C(=O)CN5CCN(CC(C)=O)CC5)CC4)cc3)oc2c1 | 24 µM |
| CCN(CC)c1ccc2cc(C(=O)c3ccc(N4CCN(C(=O)CN5CCN(CC(=O)c6ccc(OC)cc6)CC5)CC4)cc3)oc2c1 | 17.9 µM |
| CCN(CC)c1ccc2cc(C(=O)c3ccc(N4CCN(C(=O)CN5CCN(C(=O)/C=C/c6ccccc6)CC5)CC4)cc3)oc2c1 | 6.81 µM |
| CCN(CC)c1ccc2cc(C(=O)c3ccc(N4CCN(C(=O)CN5CCN(Cc6ccc(/C=C/C(=O)OC)cc6)CC5)CC4)cc3)oc2c1 | 9.92 µM |

system: L02; experiment: Cytotoxicity against human L02 assessed as reduction in cell viability after 48 hrs by MTT assay; format: cell-based; settings: L02, 48 h

| Compound | IC50 |
| --- | --- |
| CCN(CC)c1ccc2cc(C(=O)c3ccc(N4CCN(C(=O)CN5CCNCC5)CC4)cc3)oc2c1 | > 100 µM |
| CCN(CC)c1ccc2cc(C(=O)c3ccc(N4CCN(C(=O)CN5CCN(S(=O)(=O)c6ccc(F)cc6)CC5)CC4)cc3)oc2c1 | 9.24 µM |
| CCN(CC)c1ccc2cc(C(=O)c3ccc(N4CCN(C(=O)CN5CCN(CC(C)=O)CC5)CC4)cc3)oc2c1 | > 100 µM |
| CCN(CC)c1ccc2cc(C(=O)c3ccc(N4CCN(C(=O)CN5CCN(CC(=O)c6ccc(OC)cc6)CC5)CC4)cc3)oc2c1 | > 100 µM |
| CCN(CC)c1ccc2cc(C(=O)c3ccc(N4CCN(C(=O)CN5CCN(C(=O)/C=C/c6ccccc6)CC5)CC4)cc3)oc2c1 | > 100 µM |
| CCN(CC)c1ccc2cc(C(=O)c3ccc(N4CCN(C(=O)CN5CCN(Cc6ccc(/C=C/C(=O)OC)cc6)CC5)CC4)cc3)oc2c1 | > 100 µM |

system: A549; experiment: Induction of apoptosis in human A549 assessed as necrotic cells at 2 uM after 24 to 48 hrs by Annexin V/propidium iodide staining-based flow cytometric analysis (reference value: 0.16%); format: functional; settings: not given

| Compound | Activity |
| --- | --- |
| CCN(CC)c1ccc2cc(C(=O)c3ccc(N4CCN(C(=O)CN5CCN(Cc6ccc(/C=C/C(=O)OC)cc6)CC5)CC4)cc3)oc2c1 | 3.87% |
